US20090318424A1, “NOVEL COMPOUNDS” (priority 2006, published 2009)
“Also recorded” adds a separate entry of the source.

Each compound was assayed on influx of neutrophils to the lung in LPS-challenged rats (assay: Rat LPS neutrophilia model). Conditions: LPS aerosol 100 ug/ml 15 min, lavage 4 hours later; in at least one of the range of conditions tested.
Format: in vivo
Description: The effect of compounds on the influx of neutrophils to the lung in LPS-challenged rats is evaluated as follows. The test compound is suspended in one of the following solutions: 0.5% tween 80/PBS, 0.5% tween 80/saline, 10% EtOH/saline (with pH adjusted to 2.0, or 8.0 with HCl, or unadjusted), Saline @ pH 2.0, 6.5 or 8.0, 0.5% Tragacanth, 1% DMSO/20% Encapsin/Saline, or acidified 5% Tragacanth. The suspension process may be aided by the use of a glass homogenizer. For intratracheal administration, the animals are anesthetized with inhaled isoflurane and placed in a supine position, the trachea is intubated with a steel gavage needle (1.5 inch, 22 gauge, small ball) or a Penn-Century Microsprayer Aerosolizer (model IA-IB) and 200 ul of dosing solution is delivered. The animals are visually monitored during the recovery process, which typically occurs within two minutes.
Rats treated with compound or vehicle (15 min-24 hours pretreatment) are exposed to an LPS aerosol (100 ug/ml) for 15 min. Four hours later the rats are euthanized with pentobarbital (100 mg/kg, i.p.) and the airways are lavaged with 5 washes of 5 ml of phosphate buffered saline. The harvested cells are stained (Diffquick) and counted to determine total and differential cell data. In a typical study, macrophages represent 40-70% of the total cells, and polymorphonuclear cells 30-60% of the total cells. Inhibition of neutrophil levels relative to no compound controls is calculated based on the differential counts.
The assay has varying conditions, such as concentration, pretreat time, form of the compound (crystalline, amorphous, salts, micronised), and a wet or dry application of the compound. The data is obtained as % inhibition using a particular concentration and pretreat time.

| SMILES | inhibition of neutrophilia |
| --- | --- |
| CSc1nc(-c2cc(NC(=O)c3ccsc3)ccc2C)c2c(n1)N(c1c(F)cccc1F)C(=O)NC2 [7(c), N-{3-[8-(2,6-Difluorophenyl)-2-(methylthio)-7-oxo-5,6,7,8-tetrahydropyrimido[4,5-d]pyrimidin-4-yl]-4-methylphenyl}-3-thiophenecarboxamide] | inactive |
| Cc1ccc(C(=O)Nc2ccc(F)cc2)cc1-c1nc(NCCN(C)C)nc2c1CNC(=O)N2c1c(F)cccc1F [8(c), 3-(8-(2,6-difluorophenyl)-2-{[2-(dimethylamino)ethyl]amino}-7-oxo-5,6,7,8-tetrahydropyrimido[4,5-d]pyrimidin-4-yl)-N-(4-fluorophenyl)-4-methylbenzamide] | statistically significant inhibition |
| CSc1nc(-c2cc(NC(=O)c3ccc(C)c(F)c3)ccc2C)c2c(n1)N(c1c(F)cccc1F)C(=O)NC2 [23(c), N-{3-[8-(2,6-difluorophenyl)-2-(methylthio)-7-oxo-5,6,7,8-tetrahydropyrimido[4,5-d]pyrimidin-4-yl]-4-methylphenyl}-3-fluoro-4-methylbenzamide] | inactive |
| CCCNC(=O)c1ccc(C)c(-c2nc(NCCCN(CC)CC)nc3c2CNC(=O)N3c2c(F)cccc2F)c1 [29(c), 3-[2-{[3-(diethylamino)propyl]amino}-8-(2,6-difluorophenyl)-7-oxo-5,6,7,8-tetrahydropyrimido[4,5-d]pyrimidin-4-yl]-4-methyl-N-propylbenzamide] | statistically significant inhibition |
| Cc1ccc(C(=O)NC(C)C)cc1-c1nc(N(C)CCCN(C)C)nc2c1CNC(=O)N2c1c(F)cccc1F [34(d), 3-{8-(2,6-difluorophenyl)-2-[[3-(dimethylamino)propyl](methyl)amino]-7-oxo-5,6,7,8-tetrahydropyrimido[4,5-d]pyrimidin-4-yl}-4-methyl-N-(1-methylethyl)benzamide] | statistically nonsignificant inhibition |
| Cc1ccc(C(=O)Nc2ccc(F)cc2)cc1-c1nc(N2CCC(N3CCCC3)CC2)nc2c1CNC(=O)N2c1c(F)cccc1F [86(c), 3-{8-(2,6-difluorophenyl)-7-oxo-2-[4-(1-pyrrolidinyl)-1-piperidinyl]-5,6,7,8-tetrahydropyrimido[4,5-d]pyrimidin-4-yl}-N-(4-fluorophenyl)-4-methylbenzamide] | statistically nonsignificant inhibition |
| Cc1ccc(C(=O)Nc2ccc(F)cc2)cc1-c1nc(N2CCC(N3CCCCC3)CC2)nc2c1CNC(=O)N2c1c(F)cccc1F [87(b), 3-[2-(1,4′-bipiperidin-1′-yl)-8-(2,6-difluorophenyl)-7-oxo-5,6,7,8-tetrahydropyrimido[4,5-d]pyrimidin-4-yl]-N-(4-fluorophenyl)-4-methylbenzamide] | statistically nonsignificant inhibition |
| Cc1ccc(C(=O)Nc2nccs2)cc1-c1nc(NCCN(C)C)nc2c1CNC(=O)N2c1c(F)cccc1F [118(c), 3-(8-(2,6-difluorophenyl)-2-{[2-(dimethylamino)ethyl]amino}-7-oxo-5,6,7,8-tetrahydropyrimido[4,5-d]pyrimidin-4-yl)-4-methyl-N-1,3-thiazol-2-ylbenzamide] | statistically significant inhibition |
| Cc1ccc(C(=O)Nc2ccc(F)cc2)cc1-c1nc(N(C)CCCN(C)C)nc2c1CNC(=O)N2c1c(F)cccc1F [Example 9, 3-{8-(2,6-difluorophenyl)-2-[[3-(dimethylamino)-propyl](methyl)amino]-7-oxo-5,6,7,8-tetrahydropyrimido[4,5-d]pyrimidin-4-yl}-N-(4-fluorophenyl)-4-methylbenzamide] | statistically nonsignificant inhibition |
| Cc1ccc(C(=O)Nc2ccc(F)cc2)cc1-c1nc(N(C)CCN(C)C)nc2c1CNC(=O)N2c1c(F)cccc1F [Example 32, 3-{8-(2,6-difluorophenyl)-2-[[2-(dimethylamino)ethyl](methyl)amino]-7-oxo-5,6,7,8-tetrahydropyrimido[4,5-d]pyrimidin-4-yl}-N-(4-fluorophenyl)-4-methylbenzamide] | statistically nonsignificant inhibition |
| Cc1ccc(C(=O)NC(C)C)cc1-c1nc(N(C)CCN(C)C)nc2c1CNC(=O)N2c1c(F)cccc1F [Example 36, 3-{8-(2,6-difluorophenyl)-2-[[2-(dimethylamino)ethyl](methyl)amino]-7-oxo-5,6,7,8-tetrahydropyrimido[4,5-d]pyrimidin-4-yl}-4-methyl-N-(1-methylethyl)benzamide] | statistically significant inhibition |
| Cc1ccc(C(=O)NC(C)C)cc1-c1nc(NCCN(C)C)nc2c1CNC(=O)N2c1c(F)cccc1F [Example 37, 3-(8-(2,6-difluorophenyl)-2-{[2-(dimethylamino)ethyl]amino}-7-oxo-5,6,7,8-tetrahydropyrimido[4,5-d]pyrimidin-4-yl)-4-methyl-N-(1-methylethyl)benzamide] | statistically nonsignificant inhibition |
| Cc1ccc(C(=O)Nc2ccc(F)cc2)cc1-c1nc(NC2CCN(C)CC2)nc2c1CNC(=O)N2c1c(F)cccc1F [Example 39, 3-{8-(2,6-difluorophenyl)-2-[(1-methyl-4-piperidinyl)amino]-7-oxo-5,6,7,8-tetrahydropyrimido[4,5-d]pyrimidin-4-yl}-N-(4-fluorophenyl)-4-methylbenzamide] | statistically nonsignificant inhibition |
| Cc1ccc(C(=O)NC(C)C)cc1-c1nc(NCCCN(C)C)nc2c1CNC(=O)N2c1c(F)cccc1F [Example 40, 3-(8-(2,6-difluorophenyl)-2-{[3-(dimethylamino)propyl]amino}-7-oxo-5,6,7,8-tetrahydropyrimido[4,5-d]pyrimidin-4-yl)-4-methyl-N-(1-methylethyl)benzamide] | statistically significant inhibition |
| Cc1ccc(C(=O)Nc2ccc(F)cc2)cc1-c1nc(NCCCN(C)C)nc2c1CNC(=O)N2c1c(F)cccc1F [Example 42, 3-(8-(2,6-difluorophenyl)-2-{[3-(dimethylamino)propyl]amino}-7-oxo-5,6,7,8-tetrahydropyrimido[4,5-d]pyrimidin-4-yl)-N-(4-fluorophenyl)-4-methylbenzamide] | statistically significant inhibition |
| CCN(CC)CCCNc1nc(-c2cc(C(=O)Nc3ccc(F)cc3)ccc2C)c2c(n1)N(c1c(F)cccc1F)C(=O)NC2 [Example 43, 3-[2-{[3-(diethylamino)propyl]amino}-8-(2,6-difluorophenyl)-7-oxo-5,6,7,8-tetrahydropyrimido[4,5-d]pyrimidin-4-yl]-N-(4-fluorophenyl)-4-methylbenzamide] | inactive |
| CCCNC(=O)c1ccc(C)c(-c2nc(N(C)CCCN(C)C)nc3c2CNC(=O)N3c2c(F)cccc2F)c1 [Example 53, 3-{8-(2,6-difluorophenyl)-2-[[3-(dimethylamino)propyl](methyl)amino]-7-oxo-5,6,7,8-tetrahydropyrimido[4,5-d]pyrimidin-4-yl}-4-methyl-N-propylbenzamide] | statistically nonsignificant inhibition |
| Cc1ccc(C(=O)NC(C)C)cc1-c1nc(N2CCC(N3CCCCC3)CC2)nc2c1CNC(=O)N2c1c(F)cccc1F [Example 57, 3-[2-(1,4′-bipiperidin-1′-yl)-8-(2,6-difluorophenyl)-7-oxo-5,6,7,8-tetrahydropyrimido[4,5-d]pyrimidin-4-yl]-4-methyl-N-(1-methylethyl)benzamide] | statistically nonsignificant inhibition |
| Cc1ccc(C(=O)NC(C)C)cc1-c1nc(N2CCC(N3CCCC3)CC2)nc2c1CNC(=O)N2c1c(F)cccc1F [Example 60, 3-{8-(2,6-difluorophenyl)-7-oxo-2-[4-(1-pyrrolidinyl)-1-piperidinyl]-5,6,7,8-tetrahydropyrimido[4,5-d]pyrimidin-4-yl}-4-methyl-N-(1-methylethyl)benzamide] | statistically nonsignificant inhibition; also recorded: inactive |
| Cc1ccc(C(=O)NC(C)C)cc1-c1nc(N2CCC(N3CCC(C)CC3)CC2)nc2c1CNC(=O)N2c1c(F)cccc1F [Example 70, 3-[8-(2,6-difluorophenyl)-2-(4-methyl-1,4′-bipiperidin-1′-yl)-7-oxo-5,6,7,8-tetrahydropyrimido[4,5-d]pyrimidin-4-yl]-4-methyl-N-(1-methylethyl)benzamide] | statistically significant inhibition |
| Cc1ccc(C(=O)NC(C)C)cc1-c1nc(N2CCC(N3CCN(C)CC3)CC2)nc2c1CNC(=O)N2c1c(F)cccc1F [Example 72, 3-{8-(2,6-difluorophenyl)-2-[4-(4-methyl-1-piperazinyl)-1-piperidinyl]-7-oxo-5,6,7,8-tetrahydropyrimido[4,5-d]pyrimidin-4-yl}-4-methyl-N-(1-methylethyl)benzamide] | statistically significant inhibition |
| CN(C)CCNc1nc(-c2cccc(C(=O)Nc3ccccc3)c2)c2c(n1)N(c1c(F)cccc1F)C(=O)NC2 [Example 91, 3-(8-(2,6-difluorophenyl)-2-{[2-(dimethylamino)ethyl]amino}-7-oxo-5,6,7,8-tetrahydropyrimido[4,5-d]pyrimidin-4-yl)-N-phenylbenzamide] | statistically significant inhibition |
